Assay: Human HepG2 cell viability assay in 384 well format
Type: toxicity, cell-based
Design: dose 125 nL, time 70.5 hour; concentration not given beside the values
Settings: HepG2 cells, read-out: Inhibition

Structure (SMILES)	cytotoxicity at 70.5 h
COc1ccc(C2CCCN2Cc2nc3c(cnn3C)c(=O)[nH]2)cc1 (stereo unspecified)	-8.35%
Cn1ccc(C(=O)N2CCCC(CNS(C)(=O)=O)C2)cc1=O (stereo unspecified)	-8.6%
c1ccc(-c2cc(CN3CCCC(Cn4cncn4)C3)on2)cc1 (stereo unspecified)	-1.24%
Cc1cc(N(C)Cc2c(C)noc2C)n2nc(C)c(C)c2n1	3.35%
O=C(C1CCOCC1)N1CCC2(CC1)CC(Oc1ccccc1)CO2 (stereo unspecified)	3.04%
O=C(Cc1ccc(F)cc1)NCc1ccc(C(=O)O)o1	-2.52%
CCn1c(C2CCCN(Cc3cccc4cnccc34)C2)nn(C)c1=O (stereo unspecified)	-7.71%
O=C(c1ccccc1F)N1CCOC(c2nc(-c3ncccn3)no2)C1 (stereo unspecified)	-2.38%
Cc1noc(C)c1CC(=O)NCC(C(C)C)N1CCOCC1 (stereo unspecified)	-10.6%
O=C(c1ccco1)N1CC[C@@H](N2CCOCC2)[C@@H]1Cc1ccncc1	-4.82%
Cc1nc(CN2CCCN(C(=O)c3cccn3C)CC2)cs1	1.17%
CC(NC(=O)NCc1cccc(CN2CCCC2)c1)c1nccs1 (stereo unspecified)	-5.42%
CCS(=O)(=O)N1CCCC2(COCCN(c3nnc(C)o3)C2)C1 (stereo unspecified)	-1.84%
COCc1ccccc1CNC(=O)CNc1cccc(Cl)c1OC	-2.8%
O=C(c1cscn1)N1CCC2(COc3ncccc3S(=O)(=O)N2)C1 (stereo unspecified)	-3.8%
O=C(CCN1CCOC(C(F)(F)F)C1)NCc1ccc(Cl)cc1 (stereo unspecified)	-0.312%
CCOc1ccc(CN(CC)C(=O)c2ccc(C)[nH]c2=O)cc1OC	-0.243%
O=C(c1ccncc1)N1CCCn2c(CN3CCCCC3)nnc2C1	-8.6%
CC(NC(=O)Nc1cccnc1N1CCOCC1)c1ccccn1 (stereo unspecified)	-8.36%

Structure (SMILES)	cytotoxicity at 70.5 h
Cc1noc([C@@]23CCO[C@@H]2CCN(S(=O)(=O)c2cccnc2)C3)n1	-6.17%
CC(=O)N1CCCC(c2nccnc2-c2ccc(CO)cc2)C1 (stereo unspecified)	-5.35%
CCN1CC2(CC1=O)CN(C(=O)c1ccsc1)CCN(C(=O)N(C)C)C2 (stereo unspecified)	3.77%
Cc1nc(NC2CCCC2)cc(C2CCN2C(=O)c2ccccn2)n1 (stereo unspecified)	-4.92%
CN(C(=O)CCc1nc(C2CC2)no1)c1cc(C#N)c2ccccc2n1	0.74%
Cn1cnc(S(=O)(=O)N2C[C@H]3CN(Cc4ccccn4)C[C@H]3C2)c1	-1.38%
CSC(C)CCN(Cc1ccccn1)Cc1sccc1C (stereo unspecified)	-4.96%
CN1C(=O)C(C)(C)COc2cc(NS(=O)(=O)Cc3ccccc3)ccc21	9.19%
CN(C(=O)CN1CCCC1c1cnn(C)c1)C1(C#N)CCCCC1 (stereo unspecified)	-4.65%
Cc1nn(C)cc1NC(=O)CC1CCN(C(=O)Cc2ccccc2)CC1	-4.98%
Cc1cccc(-c2nnc(C(C)N3CCn4c(C)nnc4C3)o2)c1 (stereo unspecified)	-12.4%
c1csc(CN2CCCN(c3ncnc4[nH]ccc34)CC2)c1	-13.6%
CC(=O)N(C)Cc1ncn2c1CN(C(=O)CC1CC1)CCC2	-9.44%
Nc1cccnc1N1CCN(c2ccccc2)CC1	-0.724%
CC(C)n1c(=O)c2ccccc2n(CCN2CCCCC2)c1=O	-12.6%
O=C1CC[C@H]2[C@H](CCN2C(=O)N2CCCC2)N1Cc1ccncc1	50.7%
Cc1cc(C2CCCN2CCCc2nc3ccccc3o2)on1 (stereo unspecified)	-16.1%
CN1CCN(c2ccccc2CNC(=O)Cc2cccc(F)c2)CC1	9.04%
CN(C)c1ccc(CCCNC(=O)NCC(O)c2ccsc2)cc1 (stereo unspecified)	-3.63%

Structure (SMILES)	cytotoxicity at 70.5 h
Cc1ccc(-c2ncc(CN3CCN(C(=O)N(C)C)CC3)s2)o1	-7.74%
CN1CC2(CCCN(Cc3cccc(Oc4ccccc4)c3)C2)OC1=O (stereo unspecified)	24.6%
O=C(c1cccnc1)N1C[C@@H](c2ccccc2)[C@@]2(CCNC2=O)C1	7.29%
CN(C)CCNc1cc(-c2ccc[nH]c2=O)c2cc[nH]c2n1	-5.94%
O=C(Cc1ccccn1)N1CCc2nc(-c3cnccn3)nc(O)c2C1	-4.01%
CCOc1nn(CC)cc1-c1nnc(SCc2ccccn2)n1C	-6.8%
Cc1cnc(NC(=O)c2csc(NCC(C)C)n2)s1	9.3%
O=C(NCc1ccncc1)Nc1cc(C(F)(F)F)c[nH]c1=O	-2.18%
COCCc1noc(C2CCN(S(=O)(=O)c3cccs3)CC2)n1	10.6%
CCn1nnc2c1C(COC)CN(C(=O)Cc1cccs1)C2 (stereo unspecified)	-7.34%
CC(C)(O)CN1CCN(C(=O)c2sccc2C#N)CC1	-3.64%
Cc1nn(CCO)c(C)c1CN1CCN(C2CCCCC2)C(=O)C1	0.129%
CCC(CNC(=O)Cn1ccnc1)Oc1cccc(F)c1 (stereo unspecified)	21.1%
CCOCCN1CCN(c2ccc(CN(C)C)cn2)CC1	-5.47%
CC1(Cc2ccc(F)cc2)Cc2cc(C(=O)NCCO)ccc2O1 (stereo unspecified)	-0.493%
C=C(C)CN1CCC(NC(=O)c2scnc2C)CC1	-5.87%
Cc1nc(NC2CCCC2)cc(C2CCN2C(=O)c2ccccc2)n1 (stereo unspecified)	14.2%
O=C(c1ccc2c(c1)CCCC2)N1CCn2ncnc2C1	2.9%
